# Reference: patent US20070128217A1 (priority 2003, published 2007)
# How the values were obtained:
# [1] = tested on: antibodies in sera from SARS patients (sera 1a, 1b, 2, 6, 37, 62, London, SARS-yellow, SARS-green); format: binding, human; parameters: Binding of serum 6 to linear peptides of protein X1 of SARS-CoV Urbani / Binding of serum 37 to linear peptides of protein X1 of SARS-CoV Urbani / Binding of serum 6 to looped/cyclic peptide (PEPSCAN-ELISA) / Binding of serum 37 to looped/cyclic peptide (PEPSCAN-ELISA) / Binding of serum 37 to looped/cyclic peptides of protein X1 of SARS-CoV Urbani / Binding of serum 6 to linear peptides of protein X2 / Binding of serum 37 to linear peptides of protein X2 / Binding of serum 37 to looped/cyclic peptides of protein X2 of SARS-CoV Urbani / Binding of serum 6 to linear peptides of protein M of SARS-CoV Urbani / Binding of serum 37 to linear peptides of protein M of SARS-CoV Urbani / Binding of serum 6 to looped/cyclic peptides of protein M of SARS-CoV Urbani / Binding of serum 37 to looped/cyclic peptides of protein M of SARS-CoV Urbani / Binding of serum 6 to linear peptides of protein X3 of SARS-CoV Urbani / Binding of serum 37 to linear peptides of protein X3 of SARS-CoV Urbani / Binding of serum 37 to looped/cyclic peptides of protein X3 of SARS-CoV Urbani / Binding of serum 6 to linear peptides of protein X4 of SARS-CoV Urbani / Binding of serum 37 to linear peptides of protein X4 of SARS-CoV Urbani / Binding of serum 37 to looped/cyclic peptides of protein X4 of SARS-CoV Urbani / Binding of serum 6 to linear peptides of protein X5 of SARS-CoV Urbani / Binding of serum 37 to linear peptides of protein X5 of SARS-CoV Urbani / Binding of serum 37 to looped/cyclic peptides of protein X5 of SARS-CoV Urbani / Binding of serum 6 to linear peptides of protein N of SARS-CoV Urbani / Binding of serum 37 to linear peptides of protein N of SARS-CoV Urbani / Binding of serum 6 to linear peptide (PEPSCAN-ELISA) / Binding of serum 1a to looped/cyclic peptides of protein N of SARS-CoV Urbani / Binding of serum 1b to looped/cyclic peptides of protein N of SARS-CoV Urbani / Binding of serum 2 to looped/cyclic peptides of protein N of SARS-CoV Urbani / Binding of serum 6 to looped/cyclic peptides of protein N of SARS-CoV Urbani / Binding of serum 37 to looped/cyclic peptides of protein N of SARS-CoV Urbani / Binding of serum 62 to looped/cyclic peptides of protein N of SARS-CoV Urbani / Binding of serum London to looped/cyclic peptides of protein N of SARS-CoV Urbani / Binding of serum SARS-green to looped/cyclic peptides of protein N of SARS-CoV Urbani: unit not given here
# [2] = tested on: control sera (pooled serum of ten healthy LUMC hospital workers; commercial negative donor pooled serum from the Dutch bloodbank); format: binding, human; parameters: Binding of Control serum LUMC to linear peptides / Binding of Control serum Blood-bank to linear peptides / Binding of Control serum LUMC to looped peptides / Binding of Control Serum Blood-Bank to Looped peptides / Binding of Control serum LUMC to linear peptides of the protein M of SARS-CoV Urbani / Binding of Control serum Blood-bank to linear peptides of the protein M of SARS-CoV Urbani / Binding of Control serum LUMC to looped peptides of the protein M of SARS-CoV Urbani / Binding of Control Serum Blood-Bank to Looped peptides of the protein M of SARS-CoV Urbani: unit not given here
# [3] = tested on: rabbit serum obtained by immunizing a rabbit with the SARS-CoV strain Frankfurt 1; format: binding; parameters: Binding of a rabbit serum to linear peptides / Binding of a rabbit serum to looped peptides / Rabbit serum linear peptides / Rabbit serum looped peptides / Binding of a rabbit serum to linear peptides of protein N of SARS-CoV Urbani (Rabbit serum linear peptides) / Binding of a rabbit serum to looped/cyclic peptides of protein N of SARS-CoV Urbani (Rabbit serum looped peptides): unit not given here
sequence,measurement,setting,value
SGFAAYNRYRIGNYK,Binding of serum 1a to linear peptides of protein M of SARS-CoV Urbani,[1],0.8
same,Binding of serum 1a to looped/cyclic peptides of protein M of SARS-CoV Urbani,[1],0.9
same,Binding of serum 1b to linear peptides of protein M of SARS-CoV Urbani,[1],0.4
same,Binding of serum 1b to looped/cyclic peptides of protein M of SARS-CoV Urbani,[1],0.6
same,Binding of serum 2 to linear peptides of protein M of SARS-CoV Urbani,[1],0.6
same,Binding of serum 2 to looped/cyclic peptides of protein M of SARS-CoV Urbani,[1],0.9
same,Binding of serum 6 to linear peptides of protein M of SARS-CoV Urbani,[1],0.8
same,Binding of serum 6 to looped/cyclic peptides of protein M of SARS-CoV Urbani,[1],1.4
same,Binding of serum 37 to linear peptides of protein M of SARS-CoV Urbani,[1],0.7
same,Binding of serum 37 to looped/cyclic peptides of protein M of SARS-CoV Urbani,[1],0.7
same,Binding of serum 62 to linear peptides of protein M of SARS-CoV Urbani,[1],0.8
same,Binding of serum 62 to looped/cyclic peptides of protein M of SARS-CoV Urbani,[1],0.7
same,Binding of serum London to linear peptides of protein M of SARS-CoV Urbani,[1],0.4
same,Binding of serum London to looped/cyclic peptides of protein M of SARS-CoV Urbani,[1],0.3
same,Binding of serum SARS-green to linear peptides of protein M of SARS-CoV Urbani,[1],0.3
same,Binding of serum SARS-green to looped/cyclic peptides of protein M of SARS-CoV Urbani,[1],0.2
same,Binding of serum SARS-yellow to linear peptides of protein M of SARS-CoV Urbani,[1],0.0
same,Binding of serum SARS-yellow to looped/cyclic peptides of protein M of SARS-CoV Urbani,[1],0.7
same,Binding of Control Serum Blood-Bank to Looped peptides of the protein M of SARS-CoV Urbani,[2],0.7
same,Binding of Control serum Blood-bank to linear peptides of the protein M of SARS-CoV Urbani,[2],0.6
same,Binding of Control serum LUMC to linear peptides of the protein M of SARS-CoV Urbani,[2],0.4
same,Binding of Control serum LUMC to looped peptides of the protein M of SARS-CoV Urbani,[2],0.8
same,Rabbit serum linear peptides,[3],1.2
same,Rabbit serum looped peptides,[3],1.6
SHLLLVAAGMEAQFL,Binding of serum 1a to linear peptides of protein X1 of SARS-CoV Urbani,[1],0.8
same,Binding of serum 1a to looped/cyclic peptide (PEPSCAN-ELISA),[1],0.2
same,Binding of serum 1b to linear peptides of protein X1 of SARS-CoV Urbani,[1],0.7
same,Binding of serum 1b to looped/cyclic peptide (PEPSCAN-ELISA),[1],0.5
same,Binding of serum 2 to linear peptides of protein X1 of SARS-CoV Urbani,[1],0.7
same,Binding of serum 2 to looped/cyclic peptide (PEPSCAN-ELISA),[1],0.1
same,Binding of serum 6 to linear peptides of protein X1 of SARS-CoV Urbani,[1],0.6
same,Binding of serum 6 to looped/cyclic peptide (PEPSCAN-ELISA),[1],0.1
same,Binding of serum 37 to linear peptides of protein X1 of SARS-CoV Urbani,[1],0.8
same,Binding of serum 37 to looped/cyclic peptide (PEPSCAN-ELISA),[1],0.1
same,Binding of serum 62 to linear peptides of protein X1 of SARS-CoV Urbani,[1],0.8
same,Binding of serum 62 to looped/cyclic peptide (PEPSCAN-ELISA),[1],0.2
same,Binding of serum London to linear peptides of protein X1 of SARS-CoV Urbani,[1],0.3
same,Binding of serum London to looped/cyclic peptide (PEPSCAN-ELISA),[1],0.1
same,Binding of serum SARS-green to linear peptides of protein X1 of SARS-CoV Urbani,[1],0.3
same,Binding of serum SARS-green to looped/cyclic peptide (PEPSCAN-ELISA),[1],0.5
same,Binding of serum SARS-yellow to linear peptides of protein X1 of SARS-CoV Urbani,[1],0.7
same,Binding of serum SARS-yellow to looped/cyclic peptide (PEPSCAN-ELISA),[1],0.0
same,Binding of Control Serum Blood-Bank to Looped peptides,[2],0.4
same,Binding of Control serum Blood-bank to linear peptides,[2],0.7
same,Binding of Control serum LUMC to linear peptides,[2],0.7
same,Binding of Control serum LUMC to looped peptides,[2],0.2
same,Binding of a rabbit serum to linear peptides,[3],0.5
same,Binding of a rabbit serum to looped peptides,[3],0.0
SKNPLLYDANYFVCW,Binding of serum 1a to linear peptides of protein X1 of SARS-CoV Urbani,[1],0.7
same,Binding of serum 1a to looped/cyclic peptide (PEPSCAN-ELISA),[1],0.6
same,Binding of serum 1b to linear peptides of protein X1 of SARS-CoV Urbani,[1],0.5
same,Binding of serum 1b to looped/cyclic peptide (PEPSCAN-ELISA),[1],0.5
same,Binding of serum 2 to linear peptides of protein X1 of SARS-CoV Urbani,[1],0.4
same,Binding of serum 2 to looped/cyclic peptide (PEPSCAN-ELISA),[1],0.5
same,Binding of serum 6 to linear peptides of protein X1 of SARS-CoV Urbani,[1],0.5
same,Binding of serum 6 to looped/cyclic peptide (PEPSCAN-ELISA),[1],0.4
same,Binding of serum 37 to linear peptides of protein X1 of SARS-CoV Urbani,[1],0.5
same,Binding of serum 37 to looped/cyclic peptide (PEPSCAN-ELISA),[1],0.6
same,Binding of serum 62 to linear peptides of protein X1 of SARS-CoV Urbani,[1],0.4
same,Binding of serum 62 to looped/cyclic peptide (PEPSCAN-ELISA),[1],0.6
same,Binding of serum London to linear peptides of protein X1 of SARS-CoV Urbani,[1],0.2
same,Binding of serum London to looped/cyclic peptide (PEPSCAN-ELISA),[1],0.2
same,Binding of serum SARS-green to linear peptides of protein X1 of SARS-CoV Urbani,[1],0.2
same,Binding of serum SARS-green to looped/cyclic peptide (PEPSCAN-ELISA),[1],0.4
same,Binding of serum SARS-yellow to linear peptides of protein X1 of SARS-CoV Urbani,[1],0.4
same,Binding of serum SARS-yellow to looped/cyclic peptide (PEPSCAN-ELISA),[1],0.5
same,Binding of Control Serum Blood-Bank to Looped peptides,[2],0.6
same,Binding of Control serum Blood-bank to linear peptides,[2],0.4
same,Binding of Control serum LUMC to linear peptides,[2],0.5
same,Binding of Control serum LUMC to looped peptides,[2],0.6
same,Binding of a rabbit serum to linear peptides,[3],0.1
same,Binding of a rabbit serum to looped peptides,[3],0.6
SLHKLLQTLVLKMLH,Binding of serum 1a to linear peptides of protein X2,[1],0.7
same,Binding of serum 1a to looped/cyclic peptides of protein X2 of SARS-CoV Urbani,[1],0.6
same,Binding of serum 1b to linear peptides of protein X2,[1],0.5
same,Binding of serum 1b to looped/cyclic peptides of protein X2 of SARS-CoV Urbani,[1],0.5
same,Binding of serum 2 to linear peptides of protein X2,[1],0.3
same,Binding of serum 2 to looped/cyclic peptides of protein X2 of SARS-CoV Urbani,[1],0.4
same,Binding of serum 6 to linear peptides of protein X2,[1],0.3
same,Binding of serum 6 to looped/cyclic peptides of protein X2 of SARS-CoV Urbani,[1],0.3
same,Binding of serum 37 to linear peptides of protein X2,[1],0.4
same,Binding of serum 37 to looped/cyclic peptides of protein X2 of SARS-CoV Urbani,[1],0.4
same,Binding of serum 62 to linear peptides of protein X2,[1],0.6
same,Binding of serum 62 to looped/cyclic peptides of protein X2 of SARS-CoV Urbani,[1],0.7
same,Binding of serum London to linear peptides of protein X2,[1],0.3
same,Binding of serum London to looped/cyclic peptides of protein X2 of SARS-CoV Urbani,[1],0.3
same,Binding of serum SARS-green to linear peptides of protein X2,[1],0.4
same,Binding of serum SARS-green to looped/cyclic peptides of protein X2 of SARS-CoV Urbani,[1],0.3
same,Binding of serum SARS-yellow to linear peptides of protein X2,[1],0.1
same,Binding of serum SARS-yellow to looped/cyclic peptides of protein X2 of SARS-CoV Urbani,[1],0.5
same,Binding of Control Serum Blood-Bank to Looped peptides,[2],0.7
same,Binding of Control serum Blood-bank to linear peptides,[2],0.6
same,Binding of Control serum LUMC to linear peptides,[2],0.3
same,Binding of Control serum LUMC to looped peptides,[2],0.7
same,Binding of a rabbit serum to linear peptides,[3],0.3
same,Binding of a rabbit serum to looped peptides,[3],0.5
